Measurements from US20190062305A1, “PYRIDYL OR PYRAZINYL COMPOUNDS CARRYING A METHYL-BOUND ALPHA-AMINO ACID AMIDE GROUP” (ABBVIE DEUTSCHLAND GMBH & CO. KG, priority 2015, published 2019).
Counter-ions that a name gives are not always drawn.

Assays:
[1] = biological target: T1, 5-HT2C receptor (Homo sapiens, UniProt P28335); assay: Human 5-HT2C functional assay (beta-arrestin2 recruitment, U2OS_HTR2C_β-Arrestin cells); assay type: cell-based; conditions: for EC50: beta-arrestin2 recruitment, U2OS_HTR2C_β-Arrestin cells, 1.5 h incubation, read-out: EC50 5-HT2C (potency in functional assay)
T1 construct: host or cells: U2OS
Method: The functional activity of compounds of formula I was assayed by incubation with U2OS_HTR2C_β-Arrestin cells (DiscoverX, 93-0289C3) to induce beta-arrestin2 recruitment to the 5-HT2C receptor. The agonist-induced recruitment and proximity of the receptor and beta-arrestin2 leads to complementation and formation of active β-galactosidase. The enzyme complementation results in enzyme activity, which is measured following the termination of the agonist incubation using DiscoveRx's detection reagent, which contains a chemiluminescent substrate which produces a high intensity signal. Cells were plated and a medium-change to a 1% serum containing medium was performed 24h later. The next day, test compounds were added and incubated for 1.5 h before addition of detection reagent.
The response produced was measured and compared with the response produced by 10 [mu]M 5-HT or the maximal effect induced by 5-HT (defined as 100%) to which it was expressed as a percentage response (relative efficacy). Dose response curves were constructed using Graphpad Prism (Graph Software Inc.) or using in house adapted software using a 4 parameter dose response model with variable slope (fit=(Bottom+(Top-Bottom)/(1+10^∧((Log EC50−x)*HillSlope))res=(y-fit)). Results are compiled in the table below.

[2] = Metabolic stability in human liver microsomes, unbound intrinsic clearance (Cl int/fu mic); assay type: in vitro ADME; conditions: 0.5 μM compound, NADPH; for CLint scaled at 0.5 μM: human, liver microsomes, pH 7.4, human liver microsomes 0.25 mg/mL, read-out: Cl int, mic unb. (h) [l/h/kg] (unbound intrinsic clearance, human)
Method: Samples of the tested compounds (0.5 μM) were preincubated together with human liver microsomes (0.25 mg of microsomal protein/mL) in 0.05 M potassium phosphate buffer of pH 7.4 in microtiter plates at 37° C. for 5 minutes. The reaction was started by adding NADPH (1.0 mM). After 0, 5, 10, 15, 20 and 30 minutes, an aliquot was removed, the reaction was cooled and stopped by adding twice the amount of quench solution consisting of acetonitrile/methanol 1:1, and containing 0.2 μM carbutamide as internal standard. The samples were frozen until analyzed. The remaining concentration of undegraded test substance was determined by liquid chromatography-tandem mass spectrometry (LC-MS/MS). The half-life (t1/2) was determined from the gradient of the ratio of the signal of (test substance/internal standard)/unit time plot, allowing the calculation of the half-life of the test substance, assuming first order kinetics, from the decrease in the concentration of the compound with time. The microsomal clearance ([…]) was calculated as follows: […]=((ln(2)/t 1⁄2)/Microsomal Protein Concentration (mg/ml))*1000, leading to the unit of uL/min/mg. The scaled clearance (mClin_scaled) was calculated as […]_scaled=m CLint*(Microsomal Yield (mg/kg BW))/1000000*60, leading to the units L/h/kg. The Microsomal Yield is defined by the specifics of the used microsomes. Calculations were modified from references: Di, The Society for Biomolecular Screening, 2003, 453-462; Obach, D M D, 1999 vol 27. N 11, 1350-1359. A suspension of 0.25 mg/ml microsomal protein spiked with 0.5 μM of test compound was pipetted on one side of a HTDialysis device (HTDialysis LLC, 37 Ledgewood Drive, Gales Fery CT 06335) separated by a membrane with a MWcut off 12-14 K. 50 mM K-Phosphate buffer (pH 7.4) was added on the other side of the well. After incubation at 37° C. for 4 h while shaking at 150 rpm, aliquots of both sides were taken, quenched with MeOH/ACN 1:1 and 0.2 μM of internal standard and frozen until analysis by LCMSMS Cl int unbound=Cl int/fu mic

[3] = relative efficacy vs response to 10 μM 5-HT or maximal 5-HT effect (100%)

T1 sequence (P28335 33-458): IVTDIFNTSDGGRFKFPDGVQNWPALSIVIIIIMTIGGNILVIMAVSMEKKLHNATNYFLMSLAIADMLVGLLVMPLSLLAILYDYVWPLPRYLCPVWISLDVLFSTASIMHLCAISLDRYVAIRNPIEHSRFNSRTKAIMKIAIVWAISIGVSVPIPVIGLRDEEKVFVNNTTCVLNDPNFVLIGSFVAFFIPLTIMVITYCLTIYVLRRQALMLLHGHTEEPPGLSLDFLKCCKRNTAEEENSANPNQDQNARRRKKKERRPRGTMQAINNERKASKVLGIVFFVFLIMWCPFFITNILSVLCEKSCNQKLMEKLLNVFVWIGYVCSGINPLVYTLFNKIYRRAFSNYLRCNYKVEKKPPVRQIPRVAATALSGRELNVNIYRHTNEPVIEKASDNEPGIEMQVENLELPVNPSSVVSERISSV
T1 sequence (P32121 whole entry partner): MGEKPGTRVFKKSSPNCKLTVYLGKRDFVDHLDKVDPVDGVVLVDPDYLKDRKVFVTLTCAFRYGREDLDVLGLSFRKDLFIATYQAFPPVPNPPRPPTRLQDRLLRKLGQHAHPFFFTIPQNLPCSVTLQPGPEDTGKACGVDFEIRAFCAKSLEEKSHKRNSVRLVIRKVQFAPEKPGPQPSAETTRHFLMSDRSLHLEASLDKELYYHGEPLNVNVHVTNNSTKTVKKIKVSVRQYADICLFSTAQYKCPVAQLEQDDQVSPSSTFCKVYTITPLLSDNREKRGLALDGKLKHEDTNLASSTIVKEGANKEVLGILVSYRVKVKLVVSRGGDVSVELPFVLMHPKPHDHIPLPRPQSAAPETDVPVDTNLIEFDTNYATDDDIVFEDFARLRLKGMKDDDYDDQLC

Structure (SMILES) | EC50 [1] | Emax [1, 3] | CLint scaled at 0.5 μM [2] | % efficacy [1, 3] | Cl int, mic unb. (h) [l/h/kg] (unbound intrinsic clearance, human) ([2]; human liver microsomes 0.25 mg/mL)
COc1nc(NC2CCC(C(F)(F)F)CC2)c(F)cc1CN(C)C(=O)[C@@H]1CCCN1 (mixture of isomers) [Example 157, (2S)—N-[[5-fluoro-2-methoxy-6-[[4-(trifluoromethyl)cyclohexyl]amino]-3-pyridyl]methyl]-N-methyl-pyrrolidine-2-carboxamide; 2,2,2-trifluoroacetic Acid] | 0.2 to 1 µM | 50 to 70% | 5 to 50 L/h/kg |  | 
COc1nc(O[C@H]2CCC[C@@H](C(F)(F)F)C2)c(F)cc1CNC(=O)[C@@H]1CCCN1 (relative stereo) [Example 88, (2S)—N-[[5-Fluoro-2-methoxy-6-[(1S,3R)-3-(trifluoromethyl)cyclohexoxy]-3-pyridyl]methyl]pyrrolidine-2-carboxamide Hydrochloride] | < 0.02 µM | > 70% | 5 to 50 L/h/kg |  | 
COc1nc(O[C@H]2CCC[C@H](C(F)(F)F)C2)c(F)cc1CNC(=O)[C@@H]1CCCN1 (relative stereo) [Example 89, (2S)—N-[[5-Fluoro-2-methoxy-6-[(1S,3S)-3-(trifluoromethyl)cyclohexoxy]-3-pyridyl]methyl]pyrrolidine-2-carboxamide Hydrochloride] | < 0.02 µM | > 70% | 5 to 50 L/h/kg |  | 
COc1nc(OC2CCC(C(C)(F)F)CC2)c(F)cc1CNC(=O)[C@@H]1CCCN1 (single isomer, unassigned; isomer 1) [Example 73] | 0.2 to 1 µM | > 70% | 5 to 50 L/h/kg |  | 
COc1nc(OC2CCC(C(C)(F)F)CC2)c(F)cc1CNC(=O)[C@@H]1CCCN1 (single isomer, unassigned; isomer 2) [Example 74] | < 0.02 µM |  |  | +++ (>70%) | ++ (from 5 to <50 l/h/kg)
COc1nc(OC2CCC(F)(F)CC2)c(F)cc1CNC(=O)[C@@H]1CCCN1 [Example 1, (2S)—N-[[6-(4,4-Difluorocyclohexoxy)-5-fluoro-2-methoxy-3-pyridyl]methyl]-pyrrolidine-2-carboxamide; Fumaric Acid] | < 0.02 µM | > 70% | < 5 L/h/kg |  | 
COc1nc(OCc2ccccc2)c(F)cc1CNC(=O)[C@@H]1CCCN1 [Example 2, (2S)—N-[(6-Benzyloxy-5-fluoro-2-methoxy-3-pyridyl)methyl]pyrrolidine-2-carboxamide; 2,2,2-trifluoroacetic Acid] | < 0.02 µM | > 70% | < 5 L/h/kg |  | 
COc1nc(OCC2CCCCC2)c(F)cc1CNC(=O)[C@@H]1CCCN1 [Example 3, (2S)—N-[[6-(Cyclohexylmethoxy)-5-fluoro-2-methoxy-3-pyridyl]methyl]pyrrolidine-2-carboxamide; 2,2,2-trifluoroacetic acid] | < 0.02 µM | > 70% | 5 to 50 L/h/kg |  | 
COc1nc(OCC2CCC(F)(F)CC2)c(F)cc1CNC(=O)[C@@H]1CCCN1 [Example 4, (2S)—N-[[6-[(4,4-Difluorocyclohexyl)methoxy]-5-fluoro-2-methoxy-3-pyridyl]-methyl]pyrrolidine-2-carboxamide; Fumaric Acid] | < 0.02 µM | > 70% | 5 to 50 L/h/kg |  | 
COc1nc(OCC2CCC(F)(F)C2)c(F)cc1CNC(=O)[C@@H]1CCCN1 (stereo partly drawn) [Example 6, (2S)—N-[[6-[(3,3-Difluorocyclopentyl)methoxy]-5-fluoro-2-methoxy-3-pyridyl]-methyl]pyrrolidine-2-carboxamide; Fumaric Acid] | < 0.02 µM | > 70% | < 5 L/h/kg |  | 
COc1nc(OCC2CCC(F)(F)C2)c(F)cc1CNC(=O)[C@@H]1CCCN1C (stereo partly drawn) [Example 7, (2S)—N-[[6-[(3,3-Difluorocyclopentyl)methoxy]-5-fluoro-2-methoxy-3-pyridyl]-methyl]-1-methyl-pyrrolidine-2-carboxamide; Fumaric Acid] | < 0.02 µM | > 70% | < 5 L/h/kg |  | 
COc1nc(O[C@H]2CC[C@H](C(F)(F)F)CC2)c(F)cc1CNC(=O)[C@@H]1CCCN1C [Example 8, (2S)—N-[[5-Fluoro-2-methoxy-6-[trans-4-(trifluoromethyl)cyclohexoxy]-3-pyridyl]methyl]-1-methyl-pyrrolidine-2-carboxamide; Fumaric Acid] | < 0.02 µM | > 70% | 5 to 50 L/h/kg |  | 
COc1nc(OCC2CCC(F)(F)CC2)c(F)cc1CNC(=O)[C@@H]1CCCN1C [Example 9, (2S)—N-[[6-[(4,4-Difluorocyclohexyl)methoxy]-5-fluoro-2-methoxy-3-pyridyl]methyl]-1-methyl-pyrrolidine-2-carboxamide; Fumaric Acid] | < 0.02 µM | > 70% | 5 to 50 L/h/kg |  | 
COc1nc(OC2CCC(F)(F)CC2)c(F)cc1CNC(=O)[C@@H]1CCCN1C [Example 10, (2S)—N-[[6-(4,4-Difluorocyclohexoxy)-5-fluoro-2-methoxy-3-pyridyl]methyl]-1-methyl-pyrrolidine-2-carboxamide; Fumaric Acid] | < 0.02 µM | > 70% | 5 to 50 L/h/kg |  | 
COc1nc(O[C@H]2CC[C@H](C(F)(F)F)CC2)c(F)cc1CNC(=O)[C@@H]1CCCN1 [Example 11, (2S)—N-[[5-Fluoro-2-methoxy-6-[trans-4-(trifluoromethyl)cyclohexoxy]-3-pyridyl]methyl]pyrrolidine-2-carboxamide; Fumaric Acid] | < 0.02 µM | > 70% | 5 to 50 L/h/kg |  | 
COc1nc(OC2CCC(OC)CC2)c(F)cc1CNC(=O)[C@@H]1CCCN1 (stereo partly drawn) [Example 12, (2S)—N-[[5-Fluoro-2-methoxy-6-(4-methoxycyclohexoxy)-3-pyridyl]methyl]-pyrrolidine-2-carboxamide; Fumaric Acid] | 0.02 to 0.2 µM | > 70% | < 5 L/h/kg |  | 
COc1nc(OC2CCC(OC)CC2)c(F)cc1CNC(=O)[C@@H]1CCCN1C (stereo partly drawn) [Example 13, (2S)—N-[[5-Fluoro-2-methoxy-6-(4-methoxycyclohexoxy)-3-pyridyl]methyl]-1-methyl-pyrrolidine-2-carboxamide; Fumaric Acid] | 0.02 to 0.2 µM | > 70% | < 5 L/h/kg |  | 
COc1nc(OCC2CCC(C(F)(F)F)CC2)c(F)cc1CNC(=O)[C@@H]1CCCN1 (stereo partly drawn) [Example 14, (2S)—N-[[5-Fluoro-2-methoxy-6-[[4-(trifluoromethyl)cyclohexyl]methoxy]-3-pyridyl]methyl]pyrrolidine-2-carboxamide; Fumaric Acid] | < 0.02 µM | > 70% | 50 to 500 L/h/kg |  | 
COc1nc(OCC2CCC(C(F)(F)F)CC2)c(F)cc1CNC(=O)[C@@H]1CCCN1C (stereo partly drawn) [Example 15, (2S)—N-[[5-Fluoro-2-methoxy-6-[[4-(trifluoromethyl)cyclohexyl]methoxy]-3-pyridyl]methyl]-1-methyl-pyrrolidine-2-carboxamide] | < 0.02 µM | > 70% | 50 to 500 L/h/kg |  | 
COc1nc(OC[C@H]2CCC(F)(F)C2)c(F)cc1CNC(=O)[C@@H]1CCCN1C [Example 17, (2S)—N-[[6-[[(1S)-3,3-Difluorocyclopentyl]methoxy]-5-fluoro-2-methoxy-3-pyridyl]methyl]-1-methyl-pyrrolidine-2-carboxamide; Fumaric Acid] | 0.02 to 0.2 µM | 50 to 70% | 5 to 50 L/h/kg |  | 
COc1nc(OCC(F)(F)C(F)(F)F)c(F)cc1CNC(=O)[C@@H]1CCCN1 [Example 18, (2S)—N-[[5-Fluoro-2-methoxy-6-(2,2,3,3,3-pentafluoropropoxy)-3-pyridyl]methyl]-pyrrolidine-2-carboxamide; Succinic Acid] | < 0.02 µM | > 70% | < 5 L/h/kg |  | 
